Assay results from US8415340B2, “Triazine kinase inhibitors” (Bristol-Myers Squibb Company, priority 2007, dated 2013).

Tested on: IGF1R-Sal tumors
Experiment: IGF-1R Sal Tumor Model
Type: in vivo
Details: orally, qd × 4 days, nude mice bearing IGF1R-Sal tumors
Description: P. IGF-1R Sal Tumor Model
A salivary gland adenocarcinoma that developed spontaneously in a transgenic mouse (MCI-19) was excised and cut into fragments of about 20 mg. Tumor fragments were implanted s.c. into the ventral thoracic region of a group of six female, athymic BALB/c nu/nu mice (Harley Sprague-Dawley, Indianapolis, Ind.), using a 13-gauge trocar. Once established, the salivary gland-derived tumor line was designated IGF1R-Sal and was propagated as a tumor xenograft in nude mice. Tumors were passaged every 2 weeks, at which time the tumor reached f500 to 1,000 mm3 in size. For treatment studies, nude micebearing IGF1R-Sal tumors of about 100 mm3 in size were sorted into groups of five for treatment with vehicle (80% polyethylene glycol 400 in water) alone or the test article. Compounds were administered either on a bid schedule (oral doses 8 hours apart) or on a once a day schedule orally (qd) for 4 consecutive days. Tumors were measured at the start and end of treatment. Activity was measured as % tumor growth inhibition (% TGI). The % TGI was determined using the following formula (Ct−Tt)/(Ct−Co) where Ct is defined as the median tumor size of the control group at the end of treatment, Co is defined as the median tumor size of the control group at the start of treatment, and Tt is defined as the median tumor size of the treated group at the end of treatment.

## CO[C@H]1C[C@@H](C(=O)Nc2cnccn2)N(c2nc(Nc3cc(C4CC4)n[nH]3)nc(N3CCOCC3)n2)C1 [Example 18, (2S,4S)-1-(4-(3-Cyclopropyl-1H-pyrazol-5-ylamino)-6-morpholino-1,3,5-triazin-2-yl)-4-methoxy-N-(pyrazin-2-yl)pyrrolidine-2-carboxamide]
3.13 mpk
  % TGI (3.13 mpk): 96%

## CN1CCN(c2nc(Nc3cc(C4CC4)n[nH]3)nc(N3C[C@H](F)C[C@H]3C(=O)Nc3ncns3)n2)CC1 [Example 83, (2S,4R)-1-(4-(3-Cyclopropyl-1H-pyrazol-5-ylamino)-6-(4-methylpiperazin-1-yl)-1,3,5-triazin-2-yl)-4-fluoro-N-(1,2,4-thiadiazol-5-yl)pyrrolidine-2-carboxamide]
50 mpk
  % TGI (50 mpk): 27%

## CN1CCN(c2nc(Nc3cc(C4CC4)n[nH]3)nc(N3C[C@H](F)C[C@H]3C(=O)Nc3cnccn3)n2)CC1 [Example 68, (2S,4R)-1-(4-(3-Cyclopropyl-1H-pyrazol-5-ylamino)-6-(4-methylpiperazin-1-yl)-1,3,5-triazin-2-yl)-4-fluoro-N-(pyrazin-2-yl)pyrrolidine-2-carboxamide]
6.25 mpk
  % TGI (6.25 mpk): 7%
